Laboratory results from patent US20090275583A1, “ANTIVIRAL COMPOUNDS AND USE THEREOF” (Myriad Genetics, Incorporated, priority 2006, published 2009).
Like-named read-outs stand apart in the source and are kept apart here.

Assays:
HIV-1NL4-3 = test: P4-MAGI assay; format: cell-based
Source text: P4 cells were used to test the effects of compounds on virus fusion activity. P4 cells are HIV-1 infectable CD4^+ HeLa cells that bear the bacterial lacZ gene under the control of a minimal HIV-1 LTR. Charneau, et. al., J. Mol. Biol. 241:651-662 (1994). When these cells are infected with HIV-1, β-galactosidase is expressed due to Tat activation of the viral LTR. In this assay, P4 cells were infected with the laboratory adapted strain HIV-1NL4-3 at a multiplicity of infection of 1 in the presence of DEAE-Dextran. Immediately after addition of virus to the cells, increasing concentrations of compound were added to the cells. […] The effect on cell viability (TC50, concentration of compound that inhibits growth by 50%) was determined in mock-infected cells with the WST-1 Cell Proliferation Reagent (Roche Diagnostics).

[1] = test system: HIV-1 laboratory strain, NL4-3; test: MT-4 cytoprotection assay; format: cell-based
Method: The HTLV-1 transformed T cell line, MT-4, is highly susceptible to HIV-1 infection. Anti-HIV-1 agents were evaluated in this target cell line by protection from the HIV-induced cytopathic effect. In this assay, viability of both HIV-1 and mock-infected cells was assessed in a […] assay that monitors the ability of metabolically-active cells to reduce the tetrazolium salt WST-1. Cytoprotection by antiviral compounds is indicated by the positive readout of increased WST-1 cleavage.
Briefly, exponentially growing MT-4 cells were mock-infected or batch-infected with the HIV-1 laboratory strain, NL4-3, at a multiplicity of infection of 0.0005. Following a two hour infection, the cells were washed to remove unbound virus and plated in the presence of increasing concentrations of compound. After four days incubation, cytoprotection in the infected cells and compound toxicity in mock-infected cells were analyzed using the WST-1 assay.

[2] = Human immunodeficiency virus 1, 24 h, P4 cells, 24 hour incubation, β-galactosidase expression, read-out: P4-MAGI IC50
[3] = Human immunodeficiency virus 1, NL43, MT4, 96 h, MT-4 cells, four days incubation, WST-1 readout, read-out: MT4 EC50
[4] = Human immunodeficiency virus 1, text statement, less than about 100 nm, read-out: P4-MAGI assay IC50
[5] = Human immunodeficiency virus 1, NL43, less than about 100 nm, read-out: MT-4 assay EC50 (concentration of compound that reduces the virus induced cytopathic effect by 50%)

For C=C(C)[C@@H]1CC[C@]2(C(=O)NCc3cccc(C(=O)NCCNC(=O)OCc4ccccc4)c3)CC[C@]3(C)C(CCC4[C@@]5(C)CC[C@H](O)C(C)(C)C5CC[C@]43C)C12 (stereo partly drawn) [Example 5], the IC50 (HIV-1NL4-3; [2]) was 107 nM and the EC50 [1, 3] was 2500 nM.

In the case of C=C(C)[C@@H]1CC[C@]2(C(=O)NCc3cccc(C(=O)NCc4cccc(C(=O)O)c4)c3)CC[C@]3(C)C(CCC4[C@@]5(C)CC[C@H](O)C(C)(C)C5CC[C@]43C)C12 (stereo partly drawn) [Example 6], the IC50 (HIV-1NL4-3; [2]) is reported as 15.6 nM, the IC50 (HIV-1NL4-3; [4]) is reported as < 100 nM and the EC50 [1, 3] is reported as 71 nM. The EC50 [1, 5] was < 100 nM.

For C=C(C)[C@@H]1CC[C@]2(C(=O)NCc3cccc(C(=O)NCc4ccc(C(=O)O)cc4)c3)CC[C@]3(C)C(CCC4[C@@]5(C)CC[C@H](O)C(C)(C)C5CC[C@]43C)C12 (stereo partly drawn) [Example 7], the IC50 (HIV-1NL4-3; [2]) was 21.4 nM, the IC50 (HIV-1NL4-3; [4]) was < 100 nM and the EC50 [1, 3] was 7.2 nM. The EC50 [1, 5] was < 100 nM.

C=C(C)[C@@H]1CC[C@]2(C(=O)NCc3cccc(C(=O)NCCc4ccc(C(=O)O)cc4)c3)CC[C@]3(C)C(CCC4[C@@]5(C)CC[C@H](O)C(C)(C)C5CC[C@]43C)C12 (stereo partly drawn) [Example 9] was tested, and the IC50 (HIV-1NL4-3; [2]) was 22.3 nM, the IC50 (HIV-1NL4-3; [4]) was < 100 nM and the EC50 [1, 3] was 5.5 nM. The EC50 [1, 5] was < 100 nM.

For C=C(C)[C@@H]1CC[C@]2(C(=O)NCc3cccc(C(=O)NCCc4ccccc4C(=O)O)c3)CC[C@]3(C)C(CCC4[C@@]5(C)CC[C@H](O)C(C)(C)C5CC[C@]43C)C12 (stereo partly drawn) [Example 10], the IC50 (HIV-1NL4-3; [2]) was 128 nM and the EC50 [1, 3] was 1300 nM.

With C=C(C)[C@@H]1CC[C@]2(C(=O)NCc3cccc(C(=O)NCc4ccc(O)c(C(=O)O)c4)c3)CC[C@]3(C)C(CCC4[C@@]5(C)CC[C@H](O)C(C)(C)C5CC[C@]43C)C12 (stereo partly drawn) [Example 13] the IC50 (HIV-1NL4-3; [2]) was 28 nM, the IC50 (HIV-1NL4-3; [4]) was < 100 nM and the EC50 [1, 3] was 873 nM.

In the case of C=C(C)[C@@H]1CC[C@]2(C(=O)NCc3cccc(C(=O)NCc4cccc(C(=O)O)c4C)c3)CC[C@]3(C)C(CCC4[C@@]5(C)CC[C@H](O)C(C)(C)C5CC[C@]43C)C12 (stereo partly drawn) [Example 17], the IC50 (HIV-1NL4-3; [2]) is reported as 32 nM, the IC50 (HIV-1NL4-3; [4]) is reported as < 100 nM and the EC50 [1, 3] is reported as 87 nM. The EC50 [1, 5] was < 100 nM.

C=C(C)[C@@H]1CC[C@]2(C(=O)NCc3cccc(C(=O)Nc4ccc5cc(C(=O)O)ccc5c4)c3)CC[C@]3(C)C(CCC4[C@@]5(C)CC[C@H](O)C(C)(C)C5CC[C@]43C)C12 (stereo partly drawn) [Example 18] gave an IC50 (HIV-1NL4-3; [2]) of 108 nM and an EC50 [1, 3] of 6100 nM.

C=C(C)[C@@H]1CC[C@]2(C(=O)NCc3cccc(C(=O)NCC(C)c4cccc(C(=O)O)c4)c3)CC[C@]3(C)C(CCC4[C@@]5(C)CC[C@H](O)C(C)(C)C5CC[C@]43C)C12 (stereo partly drawn) [Example 19] was tested, and the IC50 (HIV-1NL4-3; [2]) was 6.2 nM, the IC50 (HIV-1NL4-3; [4]) was < 100 nM and the EC50 [1, 3] was 19 nM. The EC50 [1, 5] was < 100 nM.

C=C(C)[C@@H]1CC[C@]2(C(=O)NCc3cccc(C(=O)NCc4cccc(-c5nn[nH]n5)c4)c3)CC[C@]3(C)C(CCC4[C@@]5(C)CC[C@H](O)C(C)(C)C5CC[C@]43C)C12 (stereo partly drawn) [Example 21] was tested, and the IC50 (HIV-1NL4-3; [2]) was 24.8 nM and the EC50 [1, 3] was 180 nM.

For C=C(C)[C@@H]1CC[C@]2(C(=O)NCc3cccc(C(=O)NCc4ccc(C(=O)O)cc4F)c3)CC[C@]3(C)C(CCC4[C@@]5(C)CC[C@H](O)C(C)(C)C5CC[C@]43C)C12 (stereo partly drawn) [Example 22], the IC50 (HIV-1NL4-3; [2]) was 15.4 nM, the EC50 [1, 3] was 9.7 nM and the EC50 [1, 5] was < 100 nM.

For C=C(C)[C@@H]1CC[C@]2(C(=O)NCc3cccc(C(=O)NCc4cccc(C(N)=O)c4)c3)CC[C@]3(C)C(CCC4[C@@]5(C)CC[C@H](O)C(C)(C)C5CC[C@]43C)C12 (stereo partly drawn) [Example 23], the IC50 (HIV-1NL4-3; [2]) was 52.7 nM and the EC50 [1, 3] was 329 nM.

For C=C(C)[C@@H]1CC[C@]2(C(=O)NCc3cccc(C(=O)NCc4cc(C(=O)OC)ccc4F)c3)CC[C@]3(C)C(CCC4[C@@]5(C)CC[C@H](O)C(C)(C)C5CC[C@]43C)C12 (stereo partly drawn) [Example 24], the IC50 (HIV-1NL4-3; [2]) was 186 nM and the EC50 [1, 3] was > 10000 nM.

With C=C(C)[C@@H]1CC[C@]2(C(=O)NCc3cccc(C(=O)NCc4ccc(F)c(C(=O)OC)c4)c3)CC[C@]3(C)C(CCC4[C@@]5(C)CC[C@H](O)C(C)(C)C5CC[C@]43C)C12 (stereo partly drawn) [Example 25] the IC50 (HIV-1NL4-3; [2]) was 40.4 nM, the IC50 (HIV-1NL4-3; [4]) was < 100 nM and the EC50 [1, 3] was 100 nM. For the same compound, the EC50 [1, 5] was < 100 nM.

With C=C(C)[C@@H]1CC[C@]2(C(=O)NCc3cccc(C(=O)NCc4cc(C(=O)O)ccc4F)c3)CC[C@]3(C)C(CCC4[C@@]5(C)CC[C@H](O)C(C)(C)C5CC[C@]43C)C12 (stereo partly drawn) [Example 26] the IC50 (HIV-1NL4-3; [2]) was 78.6 nM, the IC50 (HIV-1NL4-3; [4]) was < 100 nM and the EC50 [1, 3] was 200 nM.
